In article PMC5847048 (Psychopharmacology, 2017):
Where two headings read alike, the source gives them in different places.

How the values were obtained:
middle-aged mice = test system: middle-aged mice; set-up: method as in Giralt et al. [2017]; conditions: ref Giralt et al. [2017]; cited from earlier work
[1] = test system: aged mice (22–24 months old); test: Radial maze working memory task; type: in vivo, mouse
Experimental: In the radial arm maze task, treatments were administered subcutaneously (s.c.) once a day 60 min prior to testing from the 2 days of habituation to the 12 days of memory testing.
The radial maze (Imetronic system, Pessac, France) was fully automated and enabled by video-tracking automatic testing and recording. Briefly, each mouse was separately assigned to six adjacent arms which were grouped into three pairs (A, B, C). These three pairs were presented repeatedly among the successive trials of each testing session. The location of the food reward varied in each pair according to an alternation rule among successive trials. Namely, among the two arms opened in a specific trial, the food was inserted in the arm which was not visited in the previous trial within the same pair. The mouse must therefore remember which of the two arms was visited in a specific trial until next presentation of the same pair, and so on in order to alternate its choice among successive presentations of any pair. At the beginning of each daily session, the mouse was placed in the central platform of the radial maze with all arms closed. One pair of arms only was opened at the beginning of each trial, and the mouse was required to visit one arm. The door of the non-chosen arm was closed as soon as the mouse reached the end of the chosen arm. The mouse was allowed to run back to the central platform of his own accord, and then, the door of the chosen arm was closed. The mouse remained in the central platform until the following trial (intertrial interval 10 s). Since three pairs were concurrently used, three specific arm visits must be kept in memory by the mouse until their utilization by using short-term working memory. After 2 days of free exploration in the maze (habituation), mice were submitted to 12 consecutive testing sessions: one session of 23 trials (3 “acquisition-only trials,” one by pair, and 20 “acquisition and test trials”) per day, i.e., a total of 276 trials (240 test trials).
Each session consisted of alternate presentations of pairs A, B, and C. The first three trials with each pair were acquisition trials (both arms rewarded). Each of the following trials was at the same time an acquisition trial (for the following trial with the same pair) and a test trial (for the arm visit made during the preceding trial with the same pair); the rewarded arm was the one that has not been visited on the preceding trial with the same pair. Memory demand varied across successive trials according to the retention interval RI (i.e., the number of intervening trials with other pairs between two successive presentations of the same pair). The retention interval for one specific arm visit (e.g., within pair A) depends on the number of concurring trials (i.e., with pairs B and C) occurring till next trial with the same pair (A). Indeed, such a variable amount of interposed trials proportionally increases the delay between acquisition and test and may also generate retroactive interference. There are five levels of retention interval: from 0, corresponding to “no interposed pair,” to 4, corresponding to a sequence of four interposed trials between n-1 and n trials.
During habituation, the time needed for visiting all six arms per session day was measured. During memory testing, memory performance was evaluated according to the percentage of correct alternation responses between successive trials with the same pair in three different manners.

[2] = test system: aged mice (18–19 months old); test: Sequential/spontaneous alternation (SA) working memory task in T-maze; type: in vivo, mouse; conditions: ITI 90 s
Experimental: Treatments were administered per os daily for nine consecutive days for studies involving the CSD and SA tasks. The 8th and the 9th oral administrations were given 60 min before acquisition and test phases in the CSD task, or before the training and the test sessions in the SA task.
The spontaneous alternation (SA) task was performed in independent groups of mice as regards to the CSD and radial maze tasks. The SA task allows investigation of aged-induced working memory impairments (Vandesquille et al. [2011]). In this task, mice are submitted to a series of successive choices in a T-maze. To alternate from trial to trial, animals have to remember at each choice (except the first one) only the previous trial and to reset the interfering information from trial to trial over a series. This resetting mechanism is a main aspect of working memory (Aggleton et al. [1986]; Béracochéa and Jaffard, [1987]; Kesner [2005]).
Behavioral tests were conducted in a gray Plexiglas T-maze. Stem and arms are 35 cm long, 15 cm wide, and 10 cm high. The starting box (10 cm × 12 cm) and each goal arm are separated from the central alley by a vertical sliding door, with opening and closing monitored by a computer. Photoelectric cells allow recording of both the choice of the goal arm (left or right) and the latency (in seconds) that elapsed between the opening of the starting box and the closing of the goal box. The T-maze is located at the center of a room with various allocentric cues (white or black or striped card boards) located on the wall 1 m above the apparatus.
Animals were not food deprived, and no food reinforcement was used. Animals were first submitted to a habituation phase consisting of two free exploration sessions of 10 min each, over two consecutive days (one session per day) in the apparatus with all doors opened. At the end of the habituation phase, all animals were submitted to a training phase, involving a series of seven successive trials separated by a 30-s intertrial interval (ITI). The training phase was aimed at familiarizing the animals with the opening and closing of the doors.
For the training session, animals were submitted to a sequence of seven successive identical trials. At the beginning of a trial, mice were placed in the starting box and after a confinement period (30 s, predefined ITI), the door to the stem was opened. When the mouse entered one of the goal arms, the door was closed and the chosen arm was recorded. After a 30-s confinement period in the chosen arm, the mouse was gently returned to the starting box for a second trial, identical to the first one. To avoid olfactory cues in the apparatus, visible traces of urine were removed and the general procedure was implemented as in the training phase, except that the ITI was extended to 90 s and animals were submitted to a series of […] successive trials. […] Moreover, an 8th trial was added to the series which was separated from the 7th one by a 5-s ITI. […] The alternation score (in percentage) was used as an index of memory performance. An alternation is defined as a visit in a given arm followed by a visit into the other arm. The successive sequence of visits for the seven first trials determines the level of alternation. A percentage of alternation was calculated: number of alternations performed/number maximal of alternation. This percentage is calculated for each mouse.
For the sequential alternation task, mean and standard errors of the mean (SEM) were calculated for each group of treatment. In addition to % alternation drawn over the seven trials of the series, behavioral performances were also expressed in percentage of alternation drawn from blocks of two consecutive trials (block 1: trials 2 + 3; block 2: trials 4 + 5; block 3: trials 6 + 7). The analyses per trial blocks allowed evaluation of proactive interference over the series (Vandesquille et al. [2011], [2013]). Statistical analyses were performed using the Statview 5.0 software. […]

[3] = Experimental: The sampling times were 30 min, 1, 2, 4, and 6 h.
Plasma was extracted from the blood sample by centrifugation (+ 4 °C, 1500g, 10 min) and stored at − 80 °C. Then, plasma samples were sent in dry ice to Celerion (Switzerland) for the pharmacokinetic analysis.

[4] = S 47445 0.01 mg/kg p.o. alone, n = 12
[5] = S 47445 0.03 mg/kg p.o. alone, n = 12
[6] = S 47445 0.3 mg/kg p.o. alone, n = 12
[7] = S 47445 1.0 mg/kg p.o. alone, n = 12
[8] = S 47445 0.3 mg/kg p.o. alone, repeated (day 10), blood, middle-aged mice

O=C1c2cc3nnn(CCc4cccc(F)c4)c(=O)c3cc2OCN1C1CC1 [S 47445]
In vivo CA3-CA1 long-term potentiation and structural synaptic changes (middle-aged mice): rescues in vivo CA3-CA1 long-term potentiation and structural synaptic changes | Overall memory performance (mean percentage of correct responses over 12 days) ([1]; S 47445 0.3 mg/kg s.c. once a day, aged mice, versus aged vehicle (p ≤ 0.05)): better memory performance as compared to aged vehicle-treated mice | Performance as a function of retention interval (RI 0–4) versus chance level ([1]; S 47445 0.3 mg/kg s.c., aged mice (at least p ≤ 0.01)): remained significantly above chance level regardless the RI level | Performance as a function of proactive interference ([1]; S 47445 0.3 mg/kg s.c., aged mice, data not shown): ameliorated performance whatever the level of proactive interference | Performance as a function of retention interval (RI 0–4) versus chance level ([1]; all other groups (S 47445 0.1 and 1 mg/kg s.c.), aged mice): dropped to chance level above R1 = 1 | Alternation score, 3rd block of trials (trials 6 + 7) [2, 4]: 45.833 ± 9.650 n = 12% | Alternation score, seven first trials of the series [2, 4]: 59.722 ± 2.477 n = 12% | Alternation score, 3rd block of trials (trials 6 + 7) [2, 5]: 50.000 ± 8.704 n = 12% | Alternation score, seven first trials of the series [2, 5]: 61.11 ± 4.738 n = 12% | Alternation score, 3rd block of trials (trials 6 + 7) ([2]; S 47445 0.1 mg/kg p.o. alone, n = 12): 70.833 ± 7.432 n = 12% | Alternation score, seven first trials of the series ([2]; S 47445 0.1 mg/kg p.o. alone, n = 12, 0.1 mg/kg): alternated significantly above vehicles | Alternation score, seven first trials of the series ([2]; S 47445 0.1 mg/kg p.o. alone, n = 12, listed as S47445, 0.1 mg/kg): 65.278 ± 3.815 n = 12 % | Alternation score, 3rd block of trials (trials 6 + 7) [2, 6]: 50.000 ± 8.704 n = 12% | Alternation score, seven first trials of the series [2, 6]: 61.111 ± 2.369 n = 12% | Alternation score, 3rd block of trials (trials 6 + 7) [2, 7]: 58.333 ± 8.333 n = 12% | Alternation score, seven first trials of the series [2, 7]: 59.722 ± 3.217 n = 12% | Mean AUClast [% CV] [3, 8]: 32.1 [7.83] ng h/mL | Mean Cmax [% CV] [3, 8]: 10.2 [13.7] ng/mL | Median Tmax [range] [3, 8]: 1.5 [1–4] h | T1/2z [% CV] [3, 8]: 2.09 [32.0] h | Blood concentration at the active doses used in the pharmacological experiments ([3]; S 47445, limit of quantification 1 ng/ml): below the limit of quantification | tmax ([3]; S 47445, not changed following combination): 1.5 h | Apparent elimination half-life ([3]; mouse, in vivo): 2.1 to 3.6 h | Mean AUClast [% CV] ([3]; mouse, in vivo): 32.6 [23.0] ng h/mL | Mean Cmax [% CV] ([3]; mouse, in vivo): 8.46 [20.8] ng/mL | Median Tmax [range] ([3]; mouse, in vivo): 1.5 [1–2] h | T1/2z [% CV] ([3]; mouse, in vivo): 3.58 [66.9] h | Time after dosing at which Cmax was reached ([3]; mouse, in vivo): 1 to 4 h
